Reference: patent publication US10080757B2 (WISCONSIN ALUMNI RESEARCH FOUNDATION, priority 2016, dated 2018)
≈ marks a conversion by molar mass, not a printed value. Entries after “also recorded” stand apart in the source; their conditions may differ. Read-outs that look alike come from different tables or passages of the source.

Assays:
recombinant MtbUGM = target: T1, recombinant MtbUGM (Mycobacterium tuberculosis, UniProt P9WIQ1); experiment: biochemical; conditions: for IC50: Table 2, standard deviation, n = 3
T1 construct: made in house

[1] = Aggregation by Dynamic Light Scattering (DLS); type: physicochemical; conditions: for Aggregates observed?: 50 mM sodium phosphate buffer, 1% DMSO; for Aggregation by DLS: concentrations up to 50 μM
Protocol: A representative subset of the compounds (1, 2, and 4) were evaluated for aggregation by Dynamic Light Scattering (DLS), see Table 1. Samples for DLS analysis were prepared in 50 mM sodium phosphate buffer from DMSO inhibitor stocks, at a final DMSO concentration of 1%, and a range of final concentrations of inhibitor.

C. elegans [2] = experiment: C. elegans growth and proliferation; type: in vivo; conditions: threshold below which proliferation occurs at decreased rate
Text: As concentration decreases, each of these compounds reaches a threshold where they no longer prevent worm proliferation, but rather cause retarded growth and development. The concentration that appears to be this threshold is reported above. Below this concentration, C. elegans growth and proliferation occur, but at a decreased rate with visible ill effects to the animal.

M. smegmatis [3] = experiment: Agar disk diffusion assay; design: zone of inhibition: dose or concentration left out as unconfirmed; conditions: Mycolicibacterium smegmatis, read-out: Inhibition zone
Protocol: M. smegmatis was grown to saturation over 48 hours at 37° C. in Middlebrook 7H9 media with Albumin Dextrose Catalase (ADC) enrichment and 0.05% Tween80. The culture was diluted to OD600=˜0.2 in LB liquid media and 100 μL of dilute culture was spread onto LB agar plates, then allowed to soak into the agar for 1 hour at room temperature. Sterile disks (3 mm diameter) were impregnated with a solution of inhibitor in DMSO (1.5 μL) and placed on top of the bacterial lawn. […] The plates were incubated for 72 hours at 37° C., at which point a lawn of bacteria was visible. Zones of inhibition were measured as the average diameter of the region around a cloning disk where bacterial growth was not visible. For each disk, three diameter measurements were taken and averaged.

C. elegans [4] = experiment: C. elegans growth and proliferation; type: in vivo; conditions: for Inhibition of C. elegans proliferation / Effective inhibitor of C. elegans growth at 250 μM: 250 μM; for Effective inhibitor of C. elegans growth at 250 μM: Table 7
CeUGM = CeUGM inhibition; type: biochemical, C. elegans; conditions: 2.5 μM
M. smegmatis [5] = experiment: Microplate Alamar Blue Assay (MIC, liquid culture); type: cell-based; conditions: Mycolicibacterium smegmatis; Table 3; liquid media, at least 99% growth inhibition
Protocol: The culture was diluted to OD600=˜0.02 in LB liquid media and added to 96-well plates at a final volume of 100 μL, with added inhibitor concentrations in two-fold dilutions. Perimeter wells were filled with sterile water. After 24 hours at 37° C. in a shaking incubator, 10 μL of the Alamar Blue reagent was added to each well. The plate was incubated for an additional 4 hours at 37° C., at which point fluorescence emission at 585 nm was measured using a plate reader. The lowest inhibitor concentration at which 99% or greater growth inhibition was observed was determined to be the MIC.

C. elegans [6] = experiment: Bleach sensitivity assay (time until first rupture); type: in vivo; conditions: 50 microM; adult worms
Protocol: Compounds were tested at 50 microM. Adult worms (C. elegans) were chosen for testing and time until first rupture was measured when worms were placed in a bleach, sodium hydroxide solution. […] A graph showing results is provided as FIG. 4. Each treatment group has approximately an n=20. The Thompson Tau technique was used to determine statistical outliers.

[7] = Aggregation by Dynamic Light Scattering (DLS); type: physicochemical; conditions: 1% DMSO

T1 sequence (P9WIQ1 whole entry): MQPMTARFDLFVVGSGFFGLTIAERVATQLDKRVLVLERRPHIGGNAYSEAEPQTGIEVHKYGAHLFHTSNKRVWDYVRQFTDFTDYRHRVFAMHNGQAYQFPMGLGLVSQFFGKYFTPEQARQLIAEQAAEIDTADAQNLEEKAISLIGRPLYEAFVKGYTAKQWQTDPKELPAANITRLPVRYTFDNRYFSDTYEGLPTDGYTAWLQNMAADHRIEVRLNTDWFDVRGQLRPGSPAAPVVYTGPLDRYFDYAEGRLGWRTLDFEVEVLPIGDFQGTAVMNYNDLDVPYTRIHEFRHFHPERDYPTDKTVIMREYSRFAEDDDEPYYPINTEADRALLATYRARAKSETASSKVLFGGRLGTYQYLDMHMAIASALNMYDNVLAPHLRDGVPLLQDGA

SMILES	IC50 (recombinant MtbUGM) [µM]	Aggregates observed? ([1]; Conc. 10 uM)	Aggregates observed? ([1]; Conc. 25 uM)	Aggregates observed? ([1]; Conc. 50 uM)	Aggregates observed? ([1]; Conc. 100 uM)	Aggregation by DLS [1]	Apparent MIC (μM) to inhibit C. elegans propagation (C. elegans [2]) [µM]	zone of inhibition (M. smegmatis [3]) [mm]	Inhibition of C. elegans proliferation (C. elegans [4])	Effective inhibitor of C. elegans growth at 250 μM (C. elegans [4])	CeUGM % Inhibition at 2.5 μM (CeUGM) [%]	MIC (M. smegmatis [5]) [µM]	Time until first rupture in bleach, sodium hydroxide solution (C. elegans [6])	also measured
CS(=O)(=O)NC(=O)C(Cc1ccc(I)cc1)Nc1nc(-c2ccc(Cl)c(Cl)c2)cs1 (centres unmarked) [Compound 2, 2-((4-(3,4-dichlorophenyl)thiazol-2-yl)amino)-3-(4-iodophenyl)-N-(methylsulfonyl)propanamide]	12 ± 5	No	No	No	No	No aggregation was observed	100	7 ± 0.1	significantly inhibit	Yes	80.7 ± 1.1	25 (≈ 14.9 µg/mL)	enhances bleach sensitivity significantly; also recorded: statistically significant decrease	inhibition at 50 µM (recombinant MtbUGM; 50 μM compound (FIG. 1), read-out: Inhibition of MtbUGM activity): > 90%; Prevention of C. elegans maturation to adulthood and eventual proliferation (C. elegans [4]; 100 μM): show the ability to prevent C. elegans maturation to adulthood and eventual proliferation
O=C(NS(=O)(=O)c1ccccc1)C(Cc1ccc(I)cc1)Nc1nc(-c2ccc(Cl)c(Cl)c2)cs1 (centres unmarked) [Compound 4, 2-((4-(3,4-dichlorophenyl)thiazol-2-yl)amino)-3-(4-iodophenyl)-N-(phenylsulfonyl)propanamide]	7 ± 2	No	No	No	Yes	No aggregation was observed	250	7.3 ± 0.6	significantly inhibit	Yes	92.2 ± 0.2	25 (≈ 16.5 µg/mL)	enhances bleach sensitivity significantly; also recorded: statistically significant decrease	–
O=C(O)CC1Sc2nnc(Cc3ccc(Br)cc3)n2N=C1c1ccc(-c2ccccc2)cc1 (centres unmarked) [Compound 25, 2-(6-([1,1′-biphenyl]-4-yl)-3-(4-bromobenzyl)-7H-[1,2,4]triazolo[3,4-b][1,3,4]thiadiazin-7-yl)acetic acid]	–	–	–	–	–	–	–	–	–	–	–	–	–	MtbUGM activity in presence of compound (in words) (recombinant MtbUGM; 10 μM): completely ablated; inhibition at 10 µM (recombinant MtbUGM; 10 μM, mean of two replicates, read-out: % inhib MtbUGM (10 μM)): 100%; inhibition at 50 µM (recombinant MtbUGM; 50 μM, mean of two replicates, read-out: % inhib MtbUGM (50 μM)): 100%; inhibition at 100 µM (recombinant MtbUGM; 100 μM, mean of two replicates, read-out: % inhib MtbUGM (100 μM)): 100%; Effect of surfactant on relative inhibitor potency (recombinant MtbUGM; presence and absence of Tween80): insignificant; Aggregates by dynamic light scattering ([7]; 10 μM in PBS buffer): No aggregates were observed; Aggregates by dynamic light scattering ([7]; 100 μM in PBS buffer): No aggregates were observed
